Laboratory results reported in PubChem BioAssay AID624369 (Broad Institute, 2012).
Inconclusive results are not listed. Calls of active or inactive are those of the source.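 The calls were made as follows: active = fitted curve crosses a set inhibition level at a dose up to twice the top tested dose; inconclusive = flat curve with moderate inhibition, or an unreliable curve fit; inactive = the rest, including signal rising instead of falling.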

system: not listed separately; experiment: TNFa-induced NF-kB reporter signal decrease – HEK293 LMP1 reporter cells, dry powder, set 2, selectivity assay for EBV LMP1 NF-kB inhibitor project, dose response (AID 624369); conditions: HEK293 LMP1 TES2 NF-kB luciferase reporter, 16 h; at 35 µM (top of the series)

In the case of `C[C@H](NC(=O)C[C@H]1C=C[C@H](NC(=O)Cc2ccccn2)[C@H](CO)O1)c1ccccc1`, the activity change, negative = inhibition was 3.06% (inactive).
For `COC(=O)C[C@H]1C[C@H]2c3cc(NC(=O)CN(C)C)ccc3O[C@H]2[C@H](CO)O1`, the activity change, negative = inhibition was 4.38% (inactive).
For `Cc1noc(C)c1S(=O)(=O)Nc1ccc2c(c1)C(=O)N([C@@H](C)CO)C[C@@H](C)[C@@H](CN(C)Cc1ccc(C(F)(F)F)cc1)OCCCC[C@@H](C)O2`, the activity change, negative = inhibition was 30.6% (inactive).

system: HEK293 LMP1 TES2 NF-kB luciferase reporter, 16 h; experiment: as above; conditions: not given

`O=C(C[C@H]1C[C@@H]2c3cc(NS(=O)(=O)c4ccc(F)cc4)ccc3O[C@@H]2[C@@H](CO)O1)NCc1ccc(Oc2ccccc2)cc1` and `O=C(C[C@@H]1C[C@@H]2c3cc(NS(=O)(=O)c4ccc(F)cc4)ccc3O[C@@H]2[C@@H](CO)O1)NCc1ccc(Oc2ccccc2)cc1` are the same in AC35: 16.7 µM for the first, 16.7 µM for the second.

Compared with `CN1C(=O)c2cc(NC(=O)Cc3cccs3)ccc2OC[C@@H]2O[C@H](CC(=O)NCc3ccc(-c4ccccc4)cc3)CC[C@H]21`, `Cc1cc(C(=O)Nc2ccc3c(c2)C(=O)N(C)[C@@H]2CC[C@@H](CC(=O)NCc4ccc(-c5ccccc5)cc4)O[C@H]2CO3)no1` is 2.7-fold lower in AC35: 33.6 µM for the first, 12.4 µM for the second.

First: N#C[C@H]1[C@H](c2ccc(C#Cc3ccccc3F)cc2)[C@H](CO)N1C(=O)c1cccnc1
Second: N#C[C@@H]1[C@H](c2ccc(C#Cc3ccccc3F)cc2)[C@@H](CO)N1C(=O)c1cccnc1
The AC35 of the first is 15-fold higher: 31.3 µM for the first, 2.04 µM for the second.

`C[C@@H]1CN([C@@H](C)CO)S(=O)(=O)c2ccc(C#Cc3ccncc3)cc2O[C@H]1CN(C)C(=O)Nc1ccc2c(c1)OCO2` and `C[C@H]1CN([C@@H](C)CO)S(=O)(=O)c2ccc(C#Cc3ccncc3)cc2O[C@H]1CN(C)C(=O)Nc1ccc2c(c1)OCO2` are within 1.5-fold of each other in AC35: 21.4 µM for the first, 15.3 µM for the second.

Going from `COc1cccc(-c2cccc(-c3nc(C(=O)NCC(F)(F)F)cc4c3[C@H](CCO)N([S@@](=O)C(C)(C)C)C4)c2)c1` to `CC(C)(C)[S@](=O)N1Cc2cc(C(=O)NCC(F)(F)F)nc(-c3cccc(-c4cccc(F)c4)c3)c2[C@@H]1CCO`, the AC35 rises from 5.24 µM to 8.65 µM (1.7-fold).

`CN(C)C(=O)c1cccc(-c2cccc(-c3nc(C(=O)NCc4ccccc4)cc4c3[C@@H](CCO)N([S@](=O)C(C)(C)C)C4)c2)c1` and `CN(C)C(=O)c1ccc(-c2cccc(-c3nc(C(=O)NCc4ccccc4)cc4c3[C@@H](CCO)N([S@](=O)C(C)(C)C)C4)c2)cc1` are within 1.5-fold of each other in AC35: 10.3 µM for the first, 10.7 µM for the second.

`COc1ccc(CNC(=O)c2cc3c(c(-c4cccc(-c5ccc(C#N)cc5)c4)n2)[C@@H](CCO)N([S@](=O)C(C)(C)C)C3)cc1` and `COc1ccc(-c2cccc(-c3nc(C(=O)NCC(F)(F)F)cc4c3[C@H](CCO)N([S@@](=O)C(C)(C)C)C4)c2)cc1` are within 1.5-fold of each other in AC35: 19.5 µM for the first, 28 µM for the second.

`COc1ccccc1C#Cc1cnc2c(c1)C(=O)N([C@H](C)CO)C[C@H](C)[C@@H](CN(C)C(=O)c1ccc3c(c1)OCO3)O2` and `COc1ccccc1C#Cc1cnc2c(c1)C(=O)N([C@@H](C)CO)C[C@H](C)[C@@H](CN(C)C(=O)c1ccc3c(c1)OCO3)O2` are within 1.5-fold of each other in AC35: 34.3 µM for the first, 27.9 µM for the second.

First: O=C(C[C@H]1C[C@H]2c3cc(NS(=O)(=O)c4ccc(F)cc4)ccc3O[C@H]2[C@H](CO)O1)NCc1ccc(Oc2ccccc2)cc1
Second: O=C(C[C@@H]1C[C@H]2c3cc(NS(=O)(=O)c4ccc(F)cc4)ccc3O[C@H]2[C@@H](CO)O1)NCc1ccc(Oc2ccccc2)cc1
The AC35 of the first is 2.1-fold lower: 9.13 µM for the first, 19.5 µM for the second.

Compared with `N#C[C@H]1N[C@H](CO)[C@H]1c1ccc(C#Cc2ccccc2F)cc1`, `N#C[C@H]1[C@H](c2ccc(C#Cc3ccccc3F)cc2)[C@@H](CO)N1C(=O)c1cccnc1` is higher in AC35: < 0.26 µM for the first, 20.1 µM for the second.

`O=C(C[C@@H]1CC[C@@H]2[C@H](COC[C@@H](O)CN2Cc2ccc(Oc3ccccc3)cc2)O1)N1CCc2ccccc2C1` and `O=C(C[C@@H]1CC[C@@H]2[C@H](COC[C@@H](O)CN2Cc2ccc3c(c2)OCO3)O1)Nc1ccc(-c2ccccc2)cc1` are within 1.5-fold of each other in AC35: 8.89 µM for the first, 11.2 µM for the second.

Going from `CN1C(=O)c2cc(NC(=O)c3ccc(C(F)(F)F)cc3)ccc2OC[C@@H]2O[C@@H](CC(=O)NC3Cc4ccccc4C3)CC[C@H]21` to `Cc1cc(C(=O)Nc2ccc3c(c2)C(=O)N(C)[C@H]2CC[C@@H](CC(=O)NCc4ccc(-c5ccccc5)cc4)O[C@H]2CO3)no1`, the AC35 falls from 25.7 µM to 13.5 µM (1.9-fold).

First: CN(C)c1ccc2c(c1)[C@@H]1C[C@@H](CC(=O)NCc3ccc(Oc4ccccc4)cc3)O[C@H](CO)[C@@H]1O2
Second: CN(C)c1ccc2c(c1)[C@@H]1C[C@H](CC(=O)NCc3ccc(Oc4ccccc4)cc3)O[C@@H](CO)[C@@H]1O2
The AC35 of the first is 2.1-fold lower: 10.3 µM for the first, 21.7 µM for the second.

`COc1ccccc1C#Cc1ccc2c(c1)O[C@H](CN(C)Cc1cccnc1)[C@H](C)CN([C@H](C)CO)S2(=O)=O` and `COc1ccccc1C#Cc1ccc2c(c1)O[C@H](CN(C)Cc1cccnc1)[C@@H](C)CN([C@@H](C)CO)S2(=O)=O` are within 1.5-fold of each other in AC35: 20.7 µM for the first, 26.6 µM for the second.

First: Cc1ccc(S(=O)(=O)N(C)C[C@H]2Oc3cc(C#Cc4ccncc4)ccc3S(=O)(=O)N([C@@H](C)CO)C[C@@H]2C)cc1
Second: Cc1ccc(S(=O)(=O)N(C)C[C@H]2Oc3cc(C#Cc4ccncc4)ccc3S(=O)(=O)N([C@@H](C)CO)C[C@H]2C)cc1
The AC35 of the first is 1.6-fold lower: 10.2 µM for the first, 16.4 µM for the second.

Going from `O=C(C[C@@H]1C[C@@H]2c3cc(NC(=O)c4ccc5c(c4)OCO5)ccc3O[C@@H]2[C@@H](CO)O1)NCc1ccc(Oc2ccccc2)cc1` to `O=C(C[C@H]1C[C@@H]2c3cc(NC(=O)c4ccc5c(c4)OCO5)ccc3O[C@@H]2[C@@H](CO)O1)NCc1ccc(Oc2ccccc2)cc1`, the AC35 rises from 14.2 µM to 24.6 µM (1.7-fold).

`CC(C)(C)[S@@](=O)N1Cc2cc(C(=O)NCc3ccccc3F)nc(-c3cccc(-c4cccnc4)c3)c2[C@H]1CCO` and `CC(C)(C)[S@@](=O)N1Cc2cc(C(=O)NCc3ccccc3F)nc(-c3cccc(-c4ccncc4)c3)c2[C@H]1CCO` are within 1.5-fold of each other in AC35: 12.7 µM for the first, 9.63 µM for the second.

First: N#C[C@H]1[C@@H](c2ccc(-c3cccnc3)cc2)[C@@H](CO)N1C(=O)Nc1ccc(F)cc1
Second: COc1ccccc1C#Cc1ccc([C@H]2[C@H](C#N)N(C(=O)C3CC3)[C@H]2CO)cc1
The AC35 of the first is 1.6-fold lower: 16.9 µM for the first, 27 µM for the second.

Compared with `CC(=O)N(C)C[C@@H]1Oc2cc(C#Cc3ccc(F)cc3)ccc2S(=O)(=O)N([C@H](C)CO)C[C@H]1C`, `COc1ccc(S(=O)(=O)N(C)C[C@H]2Oc3ncc(/C=C/c4ccccc4)cc3C(=O)N([C@H](C)CO)C[C@@H]2C)cc1` is 1.6-fold lower in AC35: 34 µM for the first, 21.9 µM for the second.

Going from `CC(C)NC(=O)N1Cc2cc(C(=O)NC3Cc4ccccc4C3)nc(-c3cccc(-c4cccnc4)c3)c2[C@H]1CCO` to `CC(C)NC(=O)N1Cc2cc(C(=O)NC3Cc4ccccc4C3)nc(-c3cccc(-c4cccnc4)c3)c2[C@@H]1CCO`, the AC35 falls from 29.1 µM to 18.5 µM (1.6-fold).

`CC(C)(C)[S@@](=O)N1Cc2cc(C(=O)NCc3ccccn3)nc(-c3cccc(-c4ccccc4F)c3)c2[C@H]1CCO` and `CC(C)(C)[S@@](=O)N1Cc2cc(C(=O)NCCc3ccncc3)nc(-c3cccc(-c4cccnc4)c3)c2[C@H]1CCO` are within 1.5-fold of each other in AC35: 26.1 µM for the first, 17.7 µM for the second.

Compared with `Cc1cc(C(=O)Nc2ccc3c(c2)C(=O)N(C)[C@@H]2CC[C@H](CC(=O)NCc4ccc(-c5ccccc5)cc4)O[C@@H]2CO3)no1`, `O=C(C[C@@H]1CC[C@@H]2[C@H](COC[C@H](O)CN2Cc2ccc3c(c2)OCO3)O1)Nc1ccc(-c2ccccc2)cc1` is 1.6-fold higher in AC35: 6.74 µM for the first, 10.7 µM for the second.

Work on `O=C(C[C@H]1C[C@H]2c3cc(NC(=O)c4ccc5c(c4)OCO5)ccc3O[C@H]2[C@H](CO)O1)NCc1ccc(Oc2ccccc2)cc1` yielded an AC35 of 30 µM.

In the case of `C[C@@H](NC(=O)C[C@H]1C[C@@H]2c3cc(NC(=O)c4cccnc4)ccc3O[C@@H]2[C@@H](CO)O1)c1ccccc1`, the AC35 was > 35 µM (inactive).
